Assay results from ChEMBL document CHEMBL6087451, “Design, Synthesis, and Biological Evaluation of 2-Arylaminopyrimidine Derivatives as Dual Cathepsin L and JAK Inhibitors for the Treatment of Acute Lung Injury” (J Med Chem, 2025).

Columns and labels:
[1] = Anti-inflammatory activity against HBE cells assessed as inhibition of LPS-induced IL-8 level at 5 uM pretreated for 30 mins followed by LPS treatment for 24 hrs by ELISA relative to control; type: functional; conditions: Homo sapiens, time 24.5 hrs
[2] = Anti-inflammatory activity against HBE cells assessed as inhibition of LPS-induced IL-6 level at 5 uM pretreated for 30 mins followed by LPS treatment for 24 hrs by ELISA relative to control; type: functional; conditions: Homo sapiens, time 24.5 hrs

## Cn1cc(-c2ccnc(Nc3cccc(C(F)(F)F)c3)n2)c2ccccc21
[1]
  inhibition at 5 µM: 56%
[2]
  inhibition at 5 µM: 54%

## Nc1cccc(Nc2nccc(Oc3ccccc3)n2)c1
[1]
  inhibition at 5 µM: 56%
[2]
  inhibition at 5 µM: 54%

## Nc1cccc(Nc2nccc(Oc3ccc4[nH]ccc4c3)n2)c1
[1]
  inhibition at 5 µM: > 65%
[2]
  inhibition at 5 µM: > 65%

## N#Cc1cccc(Nc2ccnc(Nc3cccc(N)c3)n2)c1
[1]
  inhibition at 5 µM: 56%
[2]
  inhibition at 5 µM: 54%

## Cn1cc(-c2ccnc(Nc3ccc(Cl)c(N)c3)n2)c2ccccc21
[1]
  inhibition at 5 µM: 56%
[2]
  inhibition at 5 µM: 54%

## COc1ccc(C)cc1Nc1ccnc(Nc2cccc(N)c2)n1
[1]
  inhibition at 5 µM: 56%
[2]
  inhibition at 5 µM: 54%

## Nc1cccc(Nc2nccc(Nc3ccc(F)c(F)c3)n2)c1
[1]
  inhibition at 5 µM: 56%
[2]
  inhibition at 5 µM: 54%

## Nc1cccc(Nc2nccc(Nc3cccc(C(F)(F)F)c3)n2)c1
[1]
  inhibition at 5 µM: 56%
[2]
  inhibition at 5 µM: 54%

## Cn1ccc(Nc2nccc(-c3cn(C)c4ccccc34)n2)n1
[1]
  inhibition at 5 µM: 56%
[2]
  inhibition at 5 µM: 54%

## Cn1cc(-c2ccnc(Nc3ccc(C(F)(F)F)cc3)n2)c2ccccc21
[1]
  inhibition at 5 µM: 56%
[2]
  inhibition at 5 µM: 54%

## Cn1cc(-c2ccnc(Nc3cccc(F)c3)n2)c2ccccc21
[1]
  inhibition at 5 µM: 56%
[2]
  inhibition at 5 µM: 54%

## COc1ccccc1Oc1ccnc(Nc2cccc(N)c2)n1
[1]
  inhibition at 5 µM: 56%
[2]
  inhibition at 5 µM: 54%

## Nc1cccc(Nc2nccc(Nc3ccc(F)cc3)n2)c1
[1]
  inhibition at 5 µM: 56%
[2]
  inhibition at 5 µM: 54%

## Cc1ccc(Nc2ccnc(Nc3cccc(N)c3)n2)c(C)c1
[1]
  inhibition at 5 µM: 56%
[2]
  inhibition at 5 µM: 54%

## COc1cccc(OC)c1Nc1ccnc(Nc2cccc(N)c2)n1
[1]
  inhibition at 5 µM: 56%
[2]
  inhibition at 5 µM: 54%

## CC(C)(C)c1ccc(Nc2ccnc(Nc3cccc(N)c3)n2)cc1
[1]
  inhibition at 5 µM: 56%
[2]
  inhibition at 5 µM: 54%

## Nc1cccc(Nc2nccc(Nc3ccc(Cl)cc3)n2)c1
[1]
  inhibition at 5 µM: 56%
[2]
  inhibition at 5 µM: 54%

## Nc1cccc(Nc2nccc(Nc3ccccc3)n2)c1
[1]
  inhibition at 5 µM: 56%
[2]
  inhibition at 5 µM: 54%

## Nc1cccc(Nc2nccc(Sc3ccc(F)cc3)n2)c1
[1]
  inhibition at 5 µM: 56%
[2]
  inhibition at 5 µM: 54%

## Cn1cc(-c2ccnc(Nc3ccc(F)c(N)c3)n2)c2ccccc21
[1]
  inhibition at 5 µM: 56%
[2]
  inhibition at 5 µM: 54%

## Cn1cc(-c2ccnc(Nc3ccccc3N)n2)c2ccccc21
[1]
  inhibition at 5 µM: 69%
[2]
  inhibition at 5 µM: 61%

## Nc1cccc(Nc2nccc(Nc3ccc4[nH]ccc4c3)n2)c1
[1]
  inhibition at 5 µM: > 65%
[2]
  inhibition at 5 µM: > 65%

## COc1ccc(OC)c(Nc2ccnc(Nc3cccc(N)c3)n2)c1
[1]
  inhibition at 5 µM: 56%
[2]
  inhibition at 5 µM: 54%

## Cn1cc(-c2ccnc(Nc3ccc(F)cc3)n2)c2ccccc21
[1]
  inhibition at 5 µM: 56%
[2]
  inhibition at 5 µM: 54%

## COc1c(Br)cccc1Nc1ccnc(Nc2cccc(N)c2)n1
[1]
  inhibition at 5 µM: 56%
[2]
  inhibition at 5 µM: 54%

## COc1ccc(Nc2nccc(-c3cn(C)c4ccccc34)n2)cc1
[1]
  inhibition at 5 µM: 56%
[2]
  inhibition at 5 µM: 54%

## Nc1cccc(Nc2nccc(Nc3ccc(Br)cc3)n2)c1
[1]
  inhibition at 5 µM: 56%
[2]
  inhibition at 5 µM: 54%

## COc1ccc(N)cc1Nc1nccc(-c2cn(C)c3ccccc23)n1
[1]
  inhibition at 5 µM: 54%
[2]
  inhibition at 5 µM: 64%

## Nc1cccc(Nc2nccc(Sc3ccc(C(F)(F)F)cc3)n2)c1
[1]
  inhibition at 5 µM: 56%
[2]
  inhibition at 5 µM: 54%

## COc1cccc(Nc2nccc(-c3cn(C)c4ccccc34)n2)c1
[1]
  inhibition at 5 µM: 56%
[2]
  inhibition at 5 µM: 54%

## Nc1cccc(Nc2nccc(Sc3ccc(Cl)cc3)n2)c1
[1]
  inhibition at 5 µM: 56%
[2]
  inhibition at 5 µM: 54%

## COc1ccc(Sc2ccnc(Nc3cccc(N)c3)n2)cc1
[1]
  inhibition at 5 µM: 56%
[2]
  inhibition at 5 µM: 54%

## Nc1cccc(Nc2nccc(Nc3ccc(C(F)(F)F)cc3)n2)c1
[1]
  inhibition at 5 µM: 56%
[2]
  inhibition at 5 µM: 54%

## COc1cc(OC)cc(Oc2ccnc(Nc3cccc(N)c3)n2)c1
[1]
  inhibition at 5 µM: 56%
[2]
  inhibition at 5 µM: 54%
